Three molecules from patent US10428056B2, “Heterocyclic compound” (Takeda Pharmaceutical Company Limited, priority 2015, dated 2019) can be followed below.

Assay [1] concerns the target T1, human M1 receptor (hCHRM1) (Homo sapiens, UniProt P11229).
T1 construct: expressed in transfected cells; host or cells: CHO-K1
T1 sequence (P11229 1-460): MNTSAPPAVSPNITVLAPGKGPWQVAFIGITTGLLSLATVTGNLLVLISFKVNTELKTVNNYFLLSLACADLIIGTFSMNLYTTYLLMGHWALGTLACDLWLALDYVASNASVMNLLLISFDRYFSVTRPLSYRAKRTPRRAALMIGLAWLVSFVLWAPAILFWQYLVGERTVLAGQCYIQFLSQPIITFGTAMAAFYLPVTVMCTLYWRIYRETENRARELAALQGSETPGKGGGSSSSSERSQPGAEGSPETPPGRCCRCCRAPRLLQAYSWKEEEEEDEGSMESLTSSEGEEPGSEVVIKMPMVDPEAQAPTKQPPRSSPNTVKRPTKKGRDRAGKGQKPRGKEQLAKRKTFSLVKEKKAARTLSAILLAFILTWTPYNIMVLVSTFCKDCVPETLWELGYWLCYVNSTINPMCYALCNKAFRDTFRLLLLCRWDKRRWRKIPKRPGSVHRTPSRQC
Description: Measurement of M1 receptor positive allosteric modulator (M1PAM) activity, Ca fluorescence by FDSS/μ cell (Experimental Example 2). The settings on record: inflection point of concentration-dependent curve, CHO-K1 cells expressing hCHRM1, acetylcholine at EC20 (0.8-1.0 nM), read-out: IP value. Format: cell-based. The procedure:
(§1) Measurement of M1 Receptor Positive Allosteric Modulator (M1PAM) Activity
(§2) The activity of a test compound in the presence of acetylcholine at EC20 concentration (final concentration 0.8-1.0 nM), which affords an action corresponding to about 20% of the maximum activity, was measured as PAM activity. The method is as follows. CHO-K1 cells stably expressing a human M1 receptor (hCHRM1) were plated on a 384-well black clear bottom plate (BD Falcon) at 5,000 cells/well, and cultured in an incubator at 37° C., 5% CO2 for 1 day. […] A test compound prepared by diluting with assay buffer containing 3.2-4.0 nM acetylcholine was added at 10 μL/well, and the fluorescence was measured by FDSS/μ cell (Hamamatsu Photonics K.K.) for 1 min every 1 second. With the definition that the amount of change in the fluorescence on addition of acetylcholine (final concentration 1 μM) is 100% and that on addition of DMSO instead of a test compound is 0%, the activity (%) of the test compound was calculated, and the inflection point in the concentration-dependent curve of the test compound was calculated as IP values.

Assay [2] addresses T1, human M1 receptor (hCHRM1). The assay can be described thus: Measurement of M1 receptor positive allosteric modulator (M1PAM) activity, Ca fluorescence by FLIPRtetra (Experimental Example 1). The format is cell-based. As to conditions: inflection point of concentration-dependent curve, CHO-K1 cells expressing hCHRM1, acetylcholine at EC20 (0.8-1.0 nM), read-out: IP value. As to the method: as §1
as §2, with “FLIPRtetra (Molecular Devices)” for “FDSS/μ cell (Hamamatsu Photonics K.K.)”

For assay [3], the system named is Scopolamine-induced memory deficits models. Description: Novel object recognition test (Experimental Example 4). Format: in vivo, male Long-Evans rats. As to conditions: 10 mg/kg oral single dose, scopolamine 0.1 mg/kg s.c.; retention trial 4 hr after acquisition; mean±standard error. As to the method: Novel Object Recognition Test Novel object recognition test is comprised of two trials called the acquisition and the retention trials. Scopolamine-induced memory deficits models were used for the test, and animals used were male Long-Evans rats. On the day before the test, for acclimation, the rats were allowed to freely move about the test box (40×40×50 cm) for 10 minutes. On the test day, the rats were acclimated to the test room for about 1 hr prior to the test. The test compounds were orally administered to the rats in a single dose a given time before the acquisition trial. For induction of learning and memory deficits, scopolamine (0.1 mg/kg) was subcutaneously administered into the rats 30 min before the acquisition trial. For the acquisition trial, two identical objects (A1, A2) were placed in the test box. The rats were put in the test box for 3 min, and the duration exploring each object was measured. The retention trial was performed 4 hr after the acquisition trial. […] The duration for exploring each object in the acquisition trial and the retention trial was measured, and the exploration rate of novel object was calculated. The exploration rate of novel object was expressed as (the duration exploring the novel object)/[(the duration exploring the novel object)+(the duration exploring the familiar object)]×100(%) at mean±standard error.

For the molecule `Cc1c(Cc2ccc(-n3cccn3)nc2)cc2c(c1Cl)OCN([C@H]1CCC[C@@H]1O)C2=O` (single isomer, unassigned) [Example 97, 8-chloro-3-(trans-2-hydroxycyclopentyl)-7-methyl-6-((6-(1H-pyrazol-1-yl)pyridin-3-yl)methyl)-2,3-dihydro-4H-1,3-benzoxazin-4-one], the EC50 in assay [1] was 6.8 nM.

Regarding `Cc1cc2c(cc1Cc1ccc(Cl)nc1)C(=O)N([C@H]1CCCC[C@@H]1O)CO2` (relative stereo) [Example 62, 6-((6-chloropyridin-3-yl)methyl)-3-(trans-2-hydroxycyclohexyl)-7-methyl-2,3-dihydro-4H-1,3-benzoxazin-4-one], the EC50 in assay [2] came out at 27 nM.

With `Cc1ccc(Cc2cc3c(cc2C)OCN([C@H]2CCCC[C@@H]2O)C3=O)cn1` (single isomer, unassigned) [Example 28, 3-(trans-2-hydroxycyclohexyl)-7-methyl-6-((6-methylpyridin-3-yl)methyl)-2,3-dihydro-4H-1,3-benzoxazin-4-one], in assay [3], the “exploration rate of novel object (%)” value is 56.0±2.2%.
